Experimental findings from US20250325547A1, “ANTI-SARS-COV-2 DRUG” (KAGOSHIMA UNIVERSITY, priority 2021, published 2025) are described below.

Molecules are shown by their SMILES. Where two headings read alike, the source gives them in different places.

In one data set the test system is SARS-CoV-2 (WK-521). The data set is described as follows: microbe, parasite or virus in culture. The data set is classed as cell-based.
Data set [1] can be described thus: in vitro. To be noted: African green monkey.
In data set [2] the test system is SARS-CoV-2. The data set is described as follows: Anti-SARS-CoV-2 RNA assay in Vero cells. Format: cell-based. To be noted: Table 5, Vero (RNA).
Data set [3] relates to SARS-CoV-2 (WK-521 strain). To be noted: for EC50: HEK293T/ACE2 (RNA), WK-521, MOI 0.1, 3 days.
Data set [4] deals with SARS-CoV-2. Description: Anti-SARS-CoV-2 RNA assay in VeroE6/TMPRSS2 cells. To be noted: Table 5, VeroE6/TMPRSS2 (RNA). The data set is classed as cell-based.
The subject of data set [5] is SARS-CoV-2 (WK-521 strain). Description: microbe, parasite or virus in culture. As to conditions: Severe acute respiratory syndrome coronavirus 2, HEK-293T, 72 h.
A short description of data set [6]: in vitro. As to conditions: human.
Where [7] appears, read: Severe acute respiratory syndrome coronavirus 2, 72 h, read-out: EC50 (50% effective concentration, inhibits cell death induced by SARS-CoV-2 infection by 50%), VeroE6/TMPRSS2 cells, SARS-CoV-2 WK-521, MOI 0.01, 3 days, Tables 1-4.
Where [8] appears, read: read-out: CC50 (50% toxicity concentration, reduces the number of viable cells in non-infected cells by 50%), non-infected VeroE6/TMPRSS2 cells, 3 days, Tables 1-4.
[9] abbreviates: read-out: EC50 (50% effective concentration, inhibits cell death induced by SARS-CoV-2 infection by 50%), VeroE6/TMPRSS2 cells, SARS-CoV-2 WK-521, MOI 0.01, 3 days, Tables 1-4.
Setting [10] is: read-out: EC50 (50% effective concentration, inhibits cell death induced by SARS-CoV-2 infection by 50%).
[11] abbreviates: Table 5, HEK293T/ACE2, lower row.
[12] abbreviates: Severe acute respiratory syndrome coronavirus 2.

As to `C[C@@H]1CN(Cc2cc(Nc3ncnc4ccccc34)cc(Cl)c2O)[C@@H](C)CN1C` (racemic) [Compound 33], the EC50 in the data set on SARS-CoV-2 (WK-521) (setting [7]) came to 54.7 µM. For the same compound, the CC50 at 3 days in “in vitro [1]” was over 100 µM.

On to `CCN(CC)Cc1cc(Nc2ncnc3ccccc23)cc(Br)c1O` [Compound 3], for which, in the data set with SARS-CoV-2 (WK-521) (setting [7]), the EC50 worked out at 23.9 µM. For the same compound, in the data set “in vitro [1]”, the CC50 at 3 days was over 100 µM.

Take `CCN(CC)Cc1cc(Nc2ncnc3ccccc23)cc(I)c1O` [Compound 4]: the EC50 in the data set on SARS-CoV-2 (WK-521) (setting [7]) is 16.9 µM. In “in vitro [1]”, this compound came in with a CC50 at 3 days of over 100 µM.

As to `CCN(CC)Cc1cc(Nc2ncnc3cc(OC)c(OC)cc23)cc(I)c1O` [Compound 5], in the data set with SARS-CoV-2 (WK-521) (setting [7]), the EC50 was determined as 31.6 µM. The compound further returned a CC50 at 3 days in the data set “in vitro [1]” of over 100 µM.

In the case of `CCN(CC)Cc1cc(Nc2nc(N(C)C)nc3ccccc23)cc(I)c1O` [Compound 6], in the data set on SARS-CoV-2 (WK-521) (setting [7]), the EC50 was determined as 12.9 µM. The compound further showed a CC50 at 3 days in “in vitro [1]” of 49.9 µM.

`CCN(CC)Cc1cc(Nc2nc(N(C)C)nc3ccccc23)cc(Cl)c1O` [Compound 7]: the EC50 in the data set with SARS-CoV-2 (WK-521) (setting [7]) is 7.2 µM. The compound further registered a CC50 at 3 days in “in vitro [1]” of 49.2 µM.

With `CCN(C)Cc1cc(Nc2ncnc3ccccc23)cc(I)c1O` [Compound 8], in the data set on VeroE6/TMPRSS2 cells (setting [8]), the CC50 is over 100 µM. In the data set on SARS-CoV-2 (WK-521) (setting [9]), the EC50 was determined as 57.6 µM.

`CN(Cc1ccccc1)Cc1cc(Nc2ncnc3ccccc23)cc(I)c1O` [Compound 9]: the CC50 in the data set with VeroE6/TMPRSS2 cells (setting [8]) was 38.1 µM. Also, the EC50 in the data set on SARS-CoV-2 (WK-521) (setting [9]) stood at 8 µM.

Turning to `CN1CCN(Cc2cc(Nc3ncnc4ccccc34)cc(I)c2O)CC1` [Compound 10], the CC50 with VeroE6/TMPRSS2 cells (setting [8]) was over 100 µM. Moreover, the EC50 in the data set with SARS-CoV-2 (WK-521) (setting [9]) was determined as 15.5 µM.

As to `CCN(Cc1cc(Nc2ncnc3ccccc23)cc(Cl)c1O)C(C)C` [Compound 11], the EC50 in the data set with SARS-CoV-2 [2] was 5.5 µM; in data set [3], 0.12 µM; in the data set on SARS-CoV-2 (WK-521) (setting [10]), 7.6 µM; in the data set on SARS-CoV-2 [4], 1.9 µM. Further, the CC50 is over 100 µM with VeroE6/TMPRSS2 cells (Table 5, VeroE6/TMPRSS2 (CPE)); over 100 µM in the data set with VeroE6/TMPRSS2 cells (setting [8]); 85.4 µM in the data set with HEK293T/ACE2 cells (setting [11]).

For `CCNCc1cc(Nc2ncnc3ccccc23)cc(I)c1O` [Compound 13], the EC50 in the data set on SARS-CoV-2 (WK-521) (setting [7]) worked out at 44.7 µM. This compound also registered a CC50 at 3 days in “in vitro [1]” of over 100 µM.

Regarding `CC(C)N(Cc1cc(Nc2ncnc3ccccc23)cc(Cl)c1O)C(C)C` [Compound 15], the EC50 worked out at 1.7 µM with SARS-CoV-2 [2], 0.12 µM in data set [3], 3.3 µM in the data set with SARS-CoV-2 (WK-521) (setting [10]) and 1.9 µM in the data set with SARS-CoV-2 [4]. Further, in data set [3], the “selectivity coefficient (CC50/EC50)” value is given as over 833. Besides, the CC50 is over 100 µM in the data set on VeroE6/TMPRSS2 cells (Table 5, VeroE6/TMPRSS2 (CPE)); over 100 µM with VeroE6/TMPRSS2 cells (setting [8]); over 100 µM in the data set with HEK293T/ACE2 cells (setting [11]); over 100 µM with HEK293T/ACE2 cells (read-out: 50% toxicity concentration (CC50), HEK293T/ACE2 cells, text b80).

Consider `CC(C)N(Cc1cc(Nc2ncnc3ccccc23)cc(I)c1O)C(C)C` [Compound 16], for which the CC50 in the data set on VeroE6/TMPRSS2 cells (setting [8]) was over 100 µM. Besides, the EC50 in the data set on SARS-CoV-2 (WK-521) (setting [9]) was determined as 44.6 µM.

Regarding `CCN(Cc1cc(Nc2ncnc3ccccc23)cc(Cl)c1O)C1CCCCC1` [Compound 19], the EC50 is 0.14 µM in [5]; 2.9 µM in the data set on SARS-CoV-2 [2] (setting [12]); 3.2 µM in the data set with SARS-CoV-2 (WK-521) (Severe acute respiratory syndrome coronavirus 2, Table 5, VeroE6/TMPRSS2 (CPE), read-out: EC50); 2.9 µM in the data set with SARS-CoV-2 [4] (setting [12]). In the data set on VeroE6/TMPRSS2 cells (African green monkey, 3 days), this compound yielded a CC50 of over 100 µM. The CC50 at 3 days in “in vitro [6]” is 36.1 µM; in “in vitro [1]”, over 100 µM.

`CCN(Cc1cc(Nc2ncnc3ccccc23)cc(Cl)c1O)C(C)(C)C` [Compound 20]: the EC50 in the data set with SARS-CoV-2 (WK-521) (setting [7]) came out at 3.9 µM. The same compound returned a CC50 at 3 days in the data set “in vitro [1]” of over 100 µM.

With `CCCN(Cc1cc(Nc2ncnc3ccccc23)cc(Cl)c1O)C(C)C` [Compound 21], the EC50 in the data set with SARS-CoV-2 (WK-521) (setting [7]) amounted to 11.7 µM. The same compound registered a CC50 at 3 days in “in vitro [1]” of over 100 µM.

With `CC(C)N(Cc1cc(Nc2ncnc3ccccc23)cc(Cl)c1O)C(C)(C)C` [Compound 22], the EC50 in the data set with SARS-CoV-2 (WK-521) (setting [7]) came to 10.8 µM. In “in vitro [1]”, the CC50 at 3 days is over 100 µM.

For `CCCN(CCC)Cc1cc(Nc2ncnc3ccccc23)cc(Cl)c1O` [Compound 23], the EC50 with SARS-CoV-2 (WK-521) (setting [7]) stood at 15.3 µM. The compound further yielded a CC50 at 3 days in the data set “in vitro [1]” of over 100 µM.

For `CC1CC(C)CN(Cc2cc(Nc3ncnc4ccccc34)cc(Cl)c2O)C1` (stereo not drawn) [Compound 24], the EC50 in the data set on SARS-CoV-2 (WK-521) (setting [7]) worked out at 2.1 µM. The same compound came in with a CC50 at 3 days in “in vitro [1]” of over 100 µM.

With `CC(C)N(Cc1cc(Nc2ncnc3cc(F)ccc23)cc(Cl)c1O)C(C)C` [Compound 25], in the data set on SARS-CoV-2 (WK-521) (setting [7]), the EC50 was 2.5 µM. This compound also showed a CC50 at 3 days in “in vitro [1]” of over 100 µM.

`CCN(Cc1cc(Nc2ncnc3ccccc23)ccc1O)c1ccc(Cl)cc1` [Compound 26]: in the data set with SARS-CoV-2 (WK-521) (setting [7]), the EC50 was 11.7 µM. This compound also showed a CC50 at 3 days in “in vitro [1]” of over 100 µM.

As to `CC(C)N(Cc1cc(Nc2ncnc3ccccc23)ccc1O)c1ccc(Cl)cc1` [Compound 27], the EC50 with SARS-CoV-2 (WK-521) (setting [7]) was 13.9 µM. Further, the CC50 at 3 days in the data set “in vitro [1]” is over 100 µM.

Consider `CCN(Cc1cc(Nc2ncnc3ccccc23)cc(Cl)c1O)c1ccc(Cl)cc1` [Compound 28], for which, in the data set with SARS-CoV-2 (WK-521) (setting [7]), the EC50 came to 10 µM. This compound came in with a CC50 at 3 days in “in vitro [1]” of over 100 µM.

For `CC(C)N(Cc1ccncc1)Cc1cc(Nc2ncnc3ccccc23)cc(Cl)c1O` [Compound 29], in the data set with SARS-CoV-2 (WK-521) (setting [7]), the EC50 was 10.6 µM. Moreover, the CC50 at 3 days in the data set “in vitro [1]” is over 100 µM.

As to `CCN(Cc1cc(Nc2ncnc3ccccc23)cc(Cl)c1O)c1ccc(F)c(Cl)c1` [Compound 30], the EC50 in the data set on SARS-CoV-2 (WK-521) (setting [7]) stood at 10.8 µM. Further, the CC50 at 3 days in the data set “in vitro [1]” is over 100 µM.

`C[C@H]1C[C@H](C)CN(Cc2cc(Nc3ncnc4ccccc34)cc(Cl)c2O)C1` [Compound 31]: in the data set on SARS-CoV-2 (WK-521) (setting [7]), the EC50 amounted to 19.4 µM. The compound further returned a CC50 at 3 days in the data set “in vitro [1]” of 37.5 µM.

Regarding `CCN(Cc1cc(Nc2ncnc3ccccc23)cc(Cl)c1O)CC(C)(C)C` [Compound 32], the EC50 in the data set on SARS-CoV-2 (WK-521) (setting [7]) was determined as 20 µM. Further, the CC50 at 3 days in “in vitro [1]” was 60.2 µM.

Turning to `CC(C)N(Cc1cc(Nc2ncnc3ccccc23)cc(Cl)c1O[C@H]1O[C@@H](C)[C@@H](O)[C@@H](O)[C@@H]1O)C(C)C` [Compound 34], in the data set on SARS-CoV-2 (WK-521) (setting [7]), the EC50 turned out to be 60.2 µM. In the data set “in vitro [1]”, this compound returned a CC50 at 3 days of over 100 µM.

For `CC(C)(C)[C@H](NC(=O)C(F)(F)F)C(=O)N1C[C@H]2[C@@H]([C@H]1C(=O)N[C@H](C#N)C[C@@H]1CCNC1=O)C2(C)C` [Nirmatrelvir, reference compound], the EC50 with SARS-CoV-2 (WK-521) (Severe acute respiratory syndrome coronavirus 2, VeroE6/TMPRSS2, 72 h, read-out: EC50 (50% effective concentration, inhibits cell death induced by SARS-CoV-2 infection by 50%)) is 8.3 µM. This compound displayed a CC50 in “in vitro [1]” of over 100 µM.
